Experiments:
[1] = system: GFP-α-tubulin expressing SCC114 cells; assay: Treatment of GFP-α-tubulin expressing SCC114 cells with griseofulvin analogues (inhibition of centrosomal clustering); format: cell-based; settings: Homo sapiens, Table 1, analogues diluted 100 micromolar to 10 nanomolar
Experimental: Cell Culture. All cell lines were cultured in Dulbecco's modified Eagle's Medium (DMEM; PAA Laboratories, Pasching, Austria) supplemented with 10% FCS (PAA). SCC114 cells stably expressing GFP-α-tubulin were generated by transfection (Eugene 6, Roche Diagnostics, Mannheim, Germany) of the transgene in pEGFP-C1 (Clontech, Heidelberg, Germany) and maintained under selective pressure by addition of geniticin (Invitrogen, Karlsruhe, Germany) Primary normal human epidermal keratinocytes (NHEK; PromoCell, Heidelberg, Germany) were cultured in Keratinocyte Growth Medium 2 (PromoCell). When indicated a griseofulvin analogue was added to the culture medium. The griseofulvin analogue was dissolved in DMSO (Sigma). In all experiments, the final DMSO concentration was 0.1%.
Treatment of GFP-α-tubulin expressing SCC114 cells with griseofulvin analogues. Analogues were dissolved in DMSO/water and diluted to span a concentration range of 100 micromolar to 10 nanomolar.

IC50 [1] [µM] | melting point [°C] | Structure (SMILES)
9.1 | – | COc1cc(OC)c2c(c1Cl)O[C@]1(C2=O)C(OCc2ncc(C)c([N+](=O)[O-])c2C)=CC(=O)C[C@H]1C [Compound 8, (2S,6′R)-(7-Chloro-4,6-dimethoxy-benzofuran-3-one)-2-spiro-1′-(6′-methyl-2′-((3,5-dimethyl-4-nitro-pyrid-2-yl)methyloxy)-cyclohex-2′-ene-4′-one)]
3.2 | – | COc1cc(OC)c2c(c1Cl)O[C@]1(C2=O)C(OCc2ccc(-c3ccccc3)cc2)=CC(=O)C[C@H]1C [Compound 9, (2S,6′R)-(7-Chloro-4,6-dimethoxy-benzofuran-3-one)-2-spiro-1′-(2′-(4-biphenylmethoxy)-6′-methyl-cyclohex-2′-ene-4′-one)]
1.5 | – | COc1cc(OC)c2c(c1Cl)O[C@]1(C2=O)C(Oc2ccccc2)=CC(=O)C[C@H]1C [Compound 10, (2S,6′R)-(7-Chloro-4,6-dimethoxy-benzofuran-3-one)-2-spiro-1′-(6′-methyl-2′-phenoxy-cyclohex-2′-ene-4′-one)]
2.1 | 98 to 100 | CCCOC1=C(I)C(=O)C[C@@H](C)[C@]12Oc1c(Cl)c(OC)cc(OC)c1C2=O [Compound 11, (2S,6′R)-(7-Chloro-4,6-dimethoxy-benzofuran-3-one)-2-spiro-1′-(3′-iodo-6′-methyl-2′-propoxy-cyclohex-2′-ene-4′-one)]

The remaining lines, values behind:

Structure (SMILES) | IC50 [1] [µM] | melting point [°C]
COc1cc(OC)c2c(c1Cl)O[C@]1(C2=O)C(OCc2ccc(Cl)cc2)=CC(=O)C[C@H]1C [Compound 1, (2S,6′R)-(7-Chloro-4,6-dimethoxy-benzofuran-3-one)-2-spiro-1′-(2′-(4-chlorobenzyloxy)-6′-methyl-cyclohex-2′-ene-4′-one)] | 3.4 | 173 to 175
COc1cc(OC)c2c(c1Cl)O[C@]1(C2=O)C(OCc2ccc(I)cc2)=CC(=O)C[C@H]1C [Compound 2, (2S,6′R)-(7-Chloro-4,6-dimethoxy-benzofuran-3-one)-2-spiro-1′-(2′-(4-iodobenzyloxy)-6′-methyl-cyclohex-2′-ene-4′-one)] | 3.3 | 166 to 168
COc1cc(OC)c2c(c1Cl)O[C@]1(C2=O)C(OCc2cccc(I)c2)=CC(=O)C[C@H]1C [Compound 3, (2S,6′R)-(7-Chloro-4,6-dimethoxy-benzofuran-3-one)-2-spiro-1′-(2′-(3-iodobenzyloxy)-6′-methyl-cyclohex-2′-ene-4′-one)] | – | 171 to 174
COc1cc(OC)c2c(c1Cl)O[C@]1(C2=O)C(OCc2ccccc2I)=CC(=O)C[C@H]1C [Compound 4, (2S,6′R)-(7-Chloro-4,6-dimethoxy-benzofuran-3-one)-2-spiro-1′-(2′-(2-iodobenzyloxy)-6′-methyl-cyclohex-2′-ene-4′-one)] | 5.8 | 167 to 169
COc1cc(OC)c2c(c1Cl)O[C@]1(C2=O)C(OCc2ccc(C)cc2)=CC(=O)C[C@H]1C [Compound 5, (2S,6′R)-(7-Chloro-4,6-dimethoxy-benzofuran-3-one)-2-spiro-1′-(6′-methyl-2′-(4-methylbenzyloxy)-cyclohex-2′-ene-4′-one)] | 0.9 | 176 to 178
COc1cc(OC)c2c(c1Cl)O[C@]1(C2=O)C(OCc2ccc(CO)cc2)=CC(=O)C[C@H]1C [Compound 6, (2S,6′R)-(7-Chloro-4,6-dimethoxy-benzofuran-3-one)-2-spiro-1′-(6′-methyl-2′-(4-hydroxymethylbenzyloxy)-cyclohex-2′-ene-4′-one)] | 1.2 | –
COc1cc(OC)c2c(c1Cl)O[C@]1(C2=O)C(OCc2ccc(CBr)cc2)=CC(=O)C[C@H]1C [Compound 7, (2S,6′R)-(7-Chloro-4,6-dimethoxy-benzofuran-3-one)-2-spiro-1′-(6′-methyl-2′-(4-bromo-methylbenzyloxy)-cyclohex-2′-ene-4′-one)] | 4.7 | –
